Test results from article PMC11802822, “Comprehensive safety and toxicity analysis of 2,2’-Bipyridine derivatives in combating MRSA biofilm formation and persistence” (Frontiers in Cellular and Infection Microbiology, 2025).
≈ marks a conversion by molar mass, not a printed value.

What was measured:
[1] = tested on: M. luteus (MTCC 106); assay: Agar well diffusion; settings: Micrococcus luteus, MTCC106
[2] = tested on: E. coli (MTCC739); assay: Broth microdilution MIC; settings: for MIC: Escherichia coli, MTCC739, 18 h, read-out: Minimum inhibitory concentration
[3] = tested on: V. cholerae (MTCC 3906); assay: Broth microdilution MIC; type: cell-based, Vibrio cholerae; settings: for MIC: Vibrio cholerae, MTCC3906, 18 h, read-out: Minimum inhibitory concentration
[4] = tested on: K. pneumoniae (MTCC 618); assay: Broth microdilution MIC; settings: for MIC: Klebsiella pneumoniae, MTCC618, 18 h, read-out: Minimum inhibitory concentration
[5] = tested on: E. coli (MTCC739); assay: Agar well diffusion; settings: for zone of inhibition at 50 µg/mL: Escherichia coli, MTCC739
[6] = tested on: P. aeruginosa (MTCC1934); assay: Broth microdilution MIC; settings: for MIC: Pseudomonas aeruginosa, MTCC1934, 18 h, read-out: Minimum inhibitory concentration
[7] = tested on: B. subtilis (MTCC 441); assay: Agar well diffusion; settings: for zone of inhibition at 50 µg/mL: Bacillus subtilis, MTCC441
[8] = tested on: P. aeruginosa (MTCC1934); assay: Agar well diffusion; settings: for zone of inhibition at 50 µg/mL: Pseudomonas aeruginosa, MTCC1934
[9] = tested on: MTCC 737; assay: PI uptake assay; type: cell-based, Staphylococcus aureus; settings: derivatives 100 µg/ml, Polymyxin B 10 μM, 1 h
Description: (§1) MTCC 737 and MRSA 831 were grown, washed, and resuspended in 5 mM HEPES (pH 7.2), with the OD600 normalized to 0.5. […] Polymyxin B (10 μM), a membrane destabilizer, was used as a reference control. Drug-free and vehicle controls (cells treated with 0.5% DMSO) were included to analyze changes in fluorescence. After 1 h of treatment, cultures were centrifuged and stained with 5 µM PI dye for 15 min. Following staining, the cultures were washed twice to remove the extra dye, and fluorescence was recorded at 485 nm excitation and 525 nm emission wavelengths ([Zhou et al., 2020]).

[10] = tested on: MRSA 831; assay: Neutropenic thigh infection model in mice; settings: neutropenic BALB/c mice, MRSA 831 10^8 CFU/ml, oral 30 mg/kg, after 2 h and 24 h, vs untreated control
[11] = tested on: V. cholerae (MTCC 3906); assay: Agar well diffusion; type: cell-based, Vibrio cholerae; settings: for zone of inhibition at 50 µg/mL: Vibrio cholerae, MTCC3906
[12] = tested on: MRSA 831; assay: PI uptake assay; type: cell-based, methicillin-resistant S. aureus; settings: derivatives 100 µg/ml, Polymyxin B 10 μM, 1 h
Description: as §1

[13] = tested on: MRSA 831; assay: Broth microdilution MIC; settings: 18 h; for MIC: Staphylococcus aureus, MRSA, read-out: Minimum inhibitory concentration
[14] = tested on: S. aureus (MTCC737); assay: Agar well diffusion; settings: for zone of inhibition at 50 µg/mL: Staphylococcus aureus, MTCC737
[15] = tested on: MTCC 737; assay: Biofilm inhibition assay (crystal violet); settings: S. aureus; at MIC or higher concentrations
Description: After incubation, cells were washed with 1X PBS, and stained with 100 µl of Crystal Violet dye for 15 min, and rinsed again with 1X PBS.

[16] = tested on: K. pneumoniae (MTCC 618); assay: Agar well diffusion; settings: 50 µg/ml, ND = Not detected
[17] = tested on: S. aureus (MTCC737); assay: Broth microdilution MIC; settings: for MIC: Staphylococcus aureus, MTCC737, 18 h, read-out: Minimum inhibitory concentration
[18] = tested on: MRSA 831 (MRSA); assay: Agar well diffusion; settings: MRSA 831, 50 µg/ml, ND = Not detected; for zone of inhibition at 50 µg/mL: Staphylococcus aureus, MRSA
[19] = tested on: MRSA 831 persister cells; assay: Persister killing assay; type: cell-based, methicillin-resistant S. aureus; settings: MRSA persisters; 4-fold MIC
Description: To evaluate the persister-killing activity of 2,2’-Bipy derivatives, MTCC 737 and MRSA 831 cells were grown overnight to the stationary phase at 37°C ([Kim et al., 2018b]). […]. The bacterial densities of persisters were recorded at OD600 at hourly intervals from 0 to 6 h.

[20] = Cytotoxicity (MTT assay); type: cell-based, murine; settings: mouse, 3T3-L1 fibroblast cells, 3T3L-1 cells, read-out: IC50 (cytotoxicity, MTT)
Description: The murine fibroblast 3T3 L-1 cell line was procured from the National Centre for Cell Science (NCCS), Pune, India. The 3T3 L-1 cells were incubated at 37°C in an incubator maintained at 95% humidity and 5% CO2 in DMEM medium complemented with 10% fetal bovine serum (FBS) and 1% penicillin-streptomycin.
Synthesized derivatives were evaluated for cytotoxicity in a 3T3-L1 cell line using the MTT assay ([Ernawati et al., 2022]). 8000 cells/well were added in 96-well tissue culture flat-bottom microtiter plates for 24 h and then incubated with synthesized molecules (0-400 µg/ml) for 48 h at 37°C in a CO2 incubator. DMSO was used as solvent at a concentration of 0.1% to ensure that any observed effects were not attributable to the solvent itself, whereas 1 µg/ml doxorubicin was used in toxicity tests as a positive control. Subsequently, the media was replaced with MTT solution (100 µl) diluted in fresh media (0.5 mg/ml), and incubated for 4 h. After incubation, 100 µl of stop solution (50% DMF with 20% SDS) was added to dissolve the formazan crystals, and the plates were further incubated for 1 h. Absorbance was measured at 570 nm using BioTEK Synergy multi-plate reader ([Mosmann, 1983]; [Pratelli et al., 2023]). Percent cell viability was calculated using the following formula:
Cell viability (%)=Absorbance (Untreated - blank) - Absorbance (Test sample- blank)/Absorbance (Untreated - blank)×100

Row | SMILES | zone of inhibition at 50 µg/mL [1] | MIC [2] | MIC [3] | MIC [4] | zone of inhibition at 50 µg/mL [5] | MIC [6] | zone of inhibition at 50 µg/mL [7] | zone of inhibition at 50 µg/mL [8] | zone of inhibition at 50 µg/mL [11] | MIC [13] | zone of inhibition at 50 µg/mL [14] | MIC [17] | zone of inhibition at 50 µg/mL [18] | further results
1 | CC1(C)S[C@@H]2[C@H](NC(=O)[C@H](N)c3ccccc3)C(=O)N2[C@H]1C(=O)O [Ampicillin, reference compound] | 21 mm | 6.25 mg/L (≈ 17.9 µM) | 25 mg/L (≈ 71.5 µM) | > 100 mg/L | 4 mm | 25 mg/L (≈ 71.5 µM) | 19.3 ± 0.58 mm |  |  |  |  |  |  | 
2 | C=CCOc1cc(C(C)=NO)nc(-c2ccccn2)c1 [NPS1, N-[1-(4-allyloxy[2,2’-bipyridin]-6-yl)ethyldiene]hydroxylamine] |  |  |  |  |  |  |  |  |  |  |  |  |  | Zone of inhibition ([8]; P. aeruginosa (MTCC1934), 50 µg/ml, ND = Not detected): 7.67 ± 1.53 mm; PI fluorescence (membrane integrity) [9]: exhibited fluorescence indicating membrane instability; Reduction in the bacterial load in thigh tissue [10]: ~ 1.8 log10; Zone of inhibition ([11]; V. cholerae (MTCC 3906), 50 µg/ml, ND = Not detected): 15.33 ± 1.53 mm; PI fluorescence (membrane integrity) [12]: exhibited fluorescence indicating membrane instability; Minimum inhibitory concentration ([13]; MRSA 831): 50 mg/L (≈ 186 µM); Minimum inhibitory concentration ([2]; E. coli (MTCC739), 18 h): >100 mg/L; Zone of inhibition ([14]; S. aureus (MTCC737), 50 µg/ml, ND = Not detected): 17.00 ± 2.65 mm; Biofilm formation inhibition (in words) [15]: highly effective; Minimum inhibitory concentration ([3]; V. cholerae (MTCC 3906), 18 h): 12.5 mg/L (≈ 46.4 µM); Minimum inhibitory concentration ([4]; K. pneumoniae (MTCC 618), 18 h): >100 mg/L; Zone of inhibition [16]: 6.00 ± 3.46 mm; Minimum inhibitory concentration ([17]; S. aureus (MTCC737), 18 h): 50 mg/L (≈ 186 µM); Zone of inhibition [18]: 8.67 ± 0.58 mm; Zone of inhibition ([5]; E. coli (MTCC739), 50 µg/ml, ND = Not detected): 9.33 ± 0.58 mm; Minimum inhibitory concentration ([6]; P. aeruginosa (MTCC1934), 18 h): >100 mg/L; Zone of inhibition ([7]; B. subtilis (MTCC 441), 50 µg/ml, ND = Not detected): 5.33 ± 2.31 mm
3 | C#CCOc1cc(C(=NO)c2ccccc2OC)nc(-c2ccccn2)c1 [NPS2, N-[(4-propargyloxy-[2,2’-bipyridin]-6-yl)(2-methoxyphenyl)methylidene] hydroxylamine] | 17 mm | > 100 mg/L | 25 mg/L (≈ 69.6 µM) | > 100 mg/L | 9 mm | > 100 mg/L | 8.33 ± 1.15 mm | 8.33 ± 1.53 mm | 13 ± 1.73 mm | 50 mg/L (≈ 139 µM) | 14 mm | 50 mg/L (≈ 139 µM) | 9.67 ± 0.58 mm | 
4 | COc1ccnc(-c2cc(OC)cc(C(=NO)c3ccccc3OC)n2)c1 [NPS3, N-[(4,4’-dimethoxyl[2,2’-bipyridin]-6-yl)(2-methoxyphenyl)methylidene] hydroxylamine] | 14.7 ± 1.15 mm | > 100 mg/L | 25 mg/L (≈ 68.4 µM) | > 100 mg/L |  | > 100 mg/L | 4.67 ± 1.15 mm | 11.3 ± 1.15 mm | 12.3 ± 2.52 mm | 50 mg/L (≈ 137 µM) | 13.7 ± 1.15 mm | 50 mg/L (≈ 137 µM) | 9.67 ± 0.58 mm | Effect on persister cell counts [19]: significantly reduced; IC50 at 24 h ([20]; 24 h): 253 mg/L; IC50 at 48 h ([20]; 48 h): 274 mg/L
